Legend:
[1] = system: CD34+ cells; assay: Time-course and dose-response of dmPGE2 in promoting viral transduction (GFP+ lentivirus, flow cytometry); format: cell-based, human; conditions: GFP+ lentivirus MOI 25; for percentage of cells positive for GFP, Pre-Stim w/PGE2 Minus 2 Hr: 22-24 hours of culture; for percentage of cells positive for GFP, Pre-Stim w/PGE2 Minus 1 Hr: 23-24 hours of culture; for percentage of cells positive for GFP, Virus and PGE2 Plus 1 Hr: 24-25 hours of culture; for percentage of cells positive for GFP, Virus and PGE2 Plus 2 Hr: 24-26 hours of culture; for percentage of cells positive for GFP, Virus and PGE2 Plus 4 Hr: 24-28 hours of culture; for percentage of cells positive for GFP, Virus and PGE2 24 Hr: 24-48 hours of culture
Experimental: MCD-34+ cells were thawed and pre-stimulated with SCF, TPO, FltL and IL3, then transduced with GFP+ lentivirus at a multiplicity of infection of 25. Cells were exposed to dmPGE2 during the viral transduction step (24-25 hours of culture; 24-26 hours of culture; 24-28 hours of culture; or 24-48 hours of culture) and then washed and analyzed by flow cytometry after approximately 1 week in culture. Alternatively, cells were exposed to dmPGE2 during the pre-stimulation step (22-24 hours of culture; 23-24 hours of culture).

[2] = system: CD34+ cells; assay: Vector Copy Number analysis (qRT-PCR, viral LTR vs human beta-actin) after GFP+ lentivirus transduction; format: cell-based
Experimental: Pre-stimulated cells (Example 1) were counted after 18-24 hours of culture. The cells were collected and spun for 5 minutes at 1500 RPM. 1.2×10^6 pre-stimulated CD34^+ cells were resuspended in 60 uL 10× cytokines (1000 ng/mL SCF, 1000 ng/mL TPO, 1000 ng/mL FltL, and 300 ng/mL IL-3), 7.8 uL protamine sulfate, 111 uL viral supernatant, and 361.2 uL SCGM. 90 uL cell/virus suspension (about 200,000 cells) was added to each well of a standard non-adherent 96-well plate. dmPGE2 was added during this viral transduction step at a final concentration of 100 uM, 50 uM, 25 uM, 12.5 uM, 1 uM, or 0 uM.
Washed cells were resuspended in 200 uL SCGM+1× cytokines (as described in Example 1) and transferred to a standard 12-well non-adherent tissue culture plate containing an additional 800 uL SCGM+1× cytokines Cells were maintained for an additional 6 days in a standard humidified tissue culture incubator (5% CO2) and then subjected Vector Copy Number analysis (Example 5) and FACS analysis. For FACS analysis, cells were assayed for the presence of a virally-encoded transgene, green fluorescent protein (GFP). The frequency of the virally-labeled cells within the pool of cultured cells was quantified as the frequency of GFP+ cells within the population. The mean fluorescence intensity of labeled cells was quantified.
Briefly, total genomic DNA was isolated from cells through standard protocols (for example, through DNEasy columns from Qiagen). Genomic DNA was subjected to quantitative real-time polymerase chain reaction (qRT-PCR) with TaqMan probes for viral LTR and human beta-actin. The Ct values for viral signal and beta-actin signal were normalized to a standardized control, and the number of viral copies per copy of beta actin were calculated. A linear relationship between the vector copy number and the mean fluorescence intensity (Example 4) was observed when a viral construct that encodes GFP was used.
Tables 3A-C indicate the dose-response of dmPGE2 in promoting viral transduction of CD34+ cells for three separate experiments. CD34+ cells were thawed and pre-stimulated with SCF, TPO, FltL, and IL3, then transduced (A) with GFP+ lentivirus at a multiplicity of infection of 25, (B) with GFP+ lentivirus at a multiplicity of infection of 5, or (C) transduced with an ALD (ABCD1)-expressing lentivirus at a multiplicity of infection of 25. Cells were exposed to dmPGE2 during the viral transduction step (24-48 hours of culture). Cells were then washed and analyzed by flow cytometry and PCR after approximately 1 week in culture. The percentage of cells positive for GFP (A, B) or ALD (C) via FACS staining is indicated, along with the mean fluorescent intensity (MFI) and vector copy number (VCN) (A, B).

[3] = dmPGE2 1 uM during pre-stimulation
[4] = dmPGE2 12.5 uM during pre-stimulation
[5] = dmPGE2 25 uM during pre-stimulation
[6] = dmPGE2 50 uM during pre-stimulation
[7] = dmPGE2 100 uM during pre-stimulation

SMILES: CCCCC(C)(C)[C@H](O)/C=C/[C@H]1[C@H](O)CC(=O)[C@@H]1C/C=C\CCCC(=O)O [dmPGE2, 16,16-dimethyl PGE2]
- percentage of cells positive for GFP, Pre-Stim w/PGE2 Minus 2 Hr [1, 3]: 25.74%
- percentage of cells positive for GFP, Pre-Stim w/PGE2 Minus 1 Hr [1, 3]: 22.29%
- percentage of cells positive for GFP, Virus and PGE2 Plus 1 Hr ([1]; dmPGE2 1 uM): 2.94%
- percentage of cells positive for GFP, Virus and PGE2 Plus 2 Hr ([1]; dmPGE2 1 uM): 7.17%
- percentage of cells positive for GFP, Virus and PGE2 Plus 4 Hr ([1]; dmPGE2 1 uM): 21.10%
- percentage of cells positive for GFP, Virus and PGE2 24 Hr ([1]; dmPGE2 1 uM): 32.03%
- percentage of cells positive for GFP, Pre-Stim w/PGE2 Minus 2 Hr [1, 4]: 30.64%
- percentage of cells positive for GFP, Pre-Stim w/PGE2 Minus 1 Hr [1, 4]: 22.13%
- percentage of cells positive for GFP, Virus and PGE2 Plus 1 Hr ([1]; dmPGE2 12.5 uM): 1.97%
- percentage of cells positive for GFP, Virus and PGE2 Plus 2 Hr ([1]; dmPGE2 12.5 uM): 5.32%
- percentage of cells positive for GFP, Virus and PGE2 Plus 4 Hr ([1]; dmPGE2 12.5 uM): 28.08%
- percentage of cells positive for GFP, Virus and PGE2 24 Hr ([1]; dmPGE2 12.5 uM): 47.42%
- percentage of cells positive for GFP, Pre-Stim w/PGE2 Minus 2 Hr [1, 5]: 31.90%
- percentage of cells positive for GFP, Pre-Stim w/PGE2 Minus 1 Hr [1, 5]: 24.05%
- percentage of cells positive for GFP, Virus and PGE2 Plus 1 Hr ([1]; dmPGE2 25 uM): 1.76%
- percentage of cells positive for GFP, Virus and PGE2 Plus 2 Hr ([1]; dmPGE2 25 uM): 4.76%
- percentage of cells positive for GFP, Virus and PGE2 Plus 4 Hr ([1]; dmPGE2 25 uM): 27.46%
- percentage of cells positive for GFP, Virus and PGE2 24 Hr ([1]; dmPGE2 25 uM): 50.69%
- percentage of cells positive for GFP, Pre-Stim w/PGE2 Minus 2 Hr [1, 6]: 31.85%
- percentage of cells positive for GFP, Pre-Stim w/PGE2 Minus 1 Hr [1, 6]: 22.98%
- percentage of cells positive for GFP, Virus and PGE2 Plus 1 Hr ([1]; dmPGE2 50 uM): 1.85%
- percentage of cells positive for GFP, Virus and PGE2 Plus 2 Hr ([1]; dmPGE2 50 uM): 4.23%
- percentage of cells positive for GFP, Virus and PGE2 Plus 4 Hr ([1]; dmPGE2 50 uM): 27.45%
- percentage of cells positive for GFP, Virus and PGE2 24 Hr ([1]; dmPGE2 50 uM): 54.63%
- percentage of cells positive for GFP, Pre-Stim w/PGE2 Minus 2 Hr [1, 7]: 34.85%
- percentage of cells positive for GFP, Pre-Stim w/PGE2 Minus 1 Hr [1, 7]: 25.14%
- percentage of cells positive for GFP, Virus and PGE2 Plus 1 Hr ([1]; dmPGE2 100 uM): 2.48%
- percentage of cells positive for GFP, Virus and PGE2 Plus 2 Hr ([1]; dmPGE2 100 uM): 4.02%
- percentage of cells positive for GFP, Virus and PGE2 Plus 4 Hr ([1]; dmPGE2 100 uM): 21.57%
- percentage of cells positive for GFP, Virus and PGE2 24 Hr ([1]; dmPGE2 100 uM): 76.44%
- VCN (vector copy number) ([2]; dmPGE2 12.5 uM during transduction, GFP MOI 5): 0.18
- VCN (vector copy number) ([2]; dmPGE2 12.5 uM during transduction, GFP MOI 25): 1.5
- VCN (vector copy number) ([2]; dmPGE2 25 uM during transduction, GFP MOI 5): 0.21
- VCN (vector copy number) ([2]; dmPGE2 25 uM during transduction, GFP MOI 25): 1.7
- VCN (vector copy number) ([2]; dmPGE2 50 uM during transduction, GFP MOI 5): 0.715
- VCN (vector copy number) ([2]; dmPGE2 50 uM during transduction, GFP MOI 25): 2.2
- VCN (vector copy number) ([2]; dmPGE2 100 uM during transduction, GFP MOI 5): 0.83
- VCN (vector copy number) ([2]; dmPGE2 100 uM during transduction, GFP MOI 25): 3.55

— patent US9988644B2, “Compounds for improved viral transduction” (bluebird bio, Inc., priority 2011, dated 2018)
